Like-named read-outs stand apart in the source and are kept apart here. Where a SMILES comes first, the peptide text is derived from it. Where no end group is shown, it is not given here. [ ]: non-standard residue; d: D form. The star is where a group is joined. Lauroyl = CCCCCCCCCCCC(=O)*; Octanoyl = CCCCCCCC(=O)*
How the values were obtained:
S. aureus = assay: Kill curve in 80% serum, S. aureus; type: cell-based
From the text: It should be noted that in addition to MIC data, the lipo-hexapeptides can also be distinguished by their ability to kill bacteria in the presence of biological constituents such as serum. […] This activity, an indicator of therapeutic potential, is not obvious from the MIC data alone.

Trychophyton rubrum = assay: MIC100 against dermatophyte Trychophyton rubrum; type: cell-based; settings: T. rubrum; 125 ppm, day ten
Method: (§1) In order to compare the activity of various antimicrobial peptides, including hexapeptide SEQ ID NO:1 (P0666), MIC were determined against the dermatophytes Trychophyton rubrum and Trychophyton mentagrophytes. The concentration of samples investigated were: 2000, 1000, 500, 250 and 125 μg/ml, respectively. The medium used was modified Sabouraud's media without agar. For a 100 mL of modified Sabouraud medium: 3 g of Sabouraud's dextrose broth (Difco) was mixed into 100 mL of deionized water. The pH was adjusted to 7.0 with 0.1 N NaOH. The solution was autoclaved for thirty minutes. 940 μL of medium was poured into sterile 20 mL test tubes with plastic caps and was allowed to cool.
(§2) 50 μL of […] was added to each 20 mL test tube to make the required concentration. A control tube was composed of 50 μL of saline without sample. For the MIC experiments,
(§3) 10 μL of organism suspended in saline was added to the each 20 mL test tube and vortexed slightly. Each of the test tubes was covered in parafilm and maintained on a shaker at 27° C. at a speed of approximately 100 rpm.
(§4) The growth/inhibition of the organism was observed on a daily basis. […] The Minimum Inhibition Concentration (MIC100) for compounds F1 to F10 against fungus Trychophyton rubrum and Trychophyton mentagrophytes at 10 days.

[1] = tested on: Trychophyton mentagrophytes; assay: MIC100 against dermatophyte Trychophyton mentagrophytes; type: cell-based; settings: T. mentagrophytes; 125 ppm, day ten
Method: as §1, §2, §3, §4

[2] = Systemic toxicity, tail vein injection; type: in vivo; settings: mouse, IV, 20 mg/kg, solvent water
[3] = tested on: azole resistant strains of C. albicans; type: cell-based; design: MIC-SEQ ID NO: 55 + azole, peptide part / MIC-SEQ ID NO: 55 + azole, azole part: unit not given beside the values; settings: in combination with clotrimazole
Method: (§5) The fractional inhibitory concentration (FIC) index was used to determine the synergy between antimicrobial agents. Peptide MICs against test microorganisms were determined three times on separate occasions. […]
All strains are azole resistant clinical isolates from Prof. Ted White (Seattle Biotechnology Research Institute, Seattle)

Pseudomonas aeruginosa = type: cell-based; design: MIC, lipid length SAR: unit not given here; settings: P.aeruginosa
Method: (§6) MICs (minimal inhibitory concentrations) were determined for the hexapeptides of interest using a slightly modified version of the NCCLS (National Committee for Clinical Laboratory Standards) broth microdilution method as described previously (Steinberg et al., AAC 41: 1738, 1997). Briefly, antimicrobial agents were prepared as 10× concentrates in the most appropriate solvent. For the hexapeptide, 0.01% acetic acid containing 0.2% bovine serum albumin as a carrier protein was used. Inocula were prepared by resuspending colonies from a BAP (please spell out this term) in medium and adjusting the suspension to match that of a 0.5 McFarland standard. The suspension was diluted into fresh medium (as recommended by NCCLS for the organism) to give 2×10^5 to 7×10^5 CFU/ml for bacteria or 2×10^3 to 7×10^3 CFU/ml for Candida. After dispensing 100 μl aliquots of the microbial suspension into each well of a 96-well polypropylene microtiter plate, 11 μl of test compound was added. The MIC was defined as the lowest concentration of drug which prevented visible turbidity after 16 to 20 hours (bacteria) or 46 to 50 hours (Candida) at 35° C.

P. aeruginosa = type: cell-based; settings: combined with polymyxin B
Method: as §5

S. epidermidis ATCC12228 = assay: MIC, broth microdilution, S. epidermidis; type: cell-based; design: unit not given beside the values; settings: #86: S. epidermidis ATCC12228
Method: as §6

[4] = tested on: Salmonella typhimurium 14028S; assay: MIC, broth microdilution, S. typhimurium; type: cell-based; design: unit not given here; settings: S.typhimurium
Method: as §6

P. acnes = assay: Activity against extended panel of P. acnes; type: cell-based; design: unit not given here
From the text: A very promising application for short bioactive peptides is for dermatological indications such as acne.

MRSA = assay: Kill curve in 10% sheep serum-phosphate buffer against MRSA; type: cell-based, S. aureus; design: MRSA count in kill curve: unit not given here
S. aureus MRSA = assay: Kill kinetics in lipid (liposome) environment with or without serum; type: cell-based; settings: peptide 0.5 mg/ml; liposomes, presence or absence of serum
From the text: Referring to FIG. 8, not only does lipidation improve the activity of hexapeptides in serum it improves activity in a lipid environment which is a mimic of the human acne lesion environment. The human sebaceous gland secretion, also called sebum, contains squalene, cholesterol, cholesterol esters, wax esters, and triglycerides in which a large […] of P. acnes appears to take advantage of this environment and hydrolyzes certain sebaceous lipids. The pre-pubertal and pubertal increase in sebum secretion is almost certainly involved in the pathogenesis of adolescent acne. The activity of SEQ ID NO: 55 was studied in this environment compared to P64(SEQ ID NO:90), a traditional cationic antimicrobial peptide. Due to the fact that most lipids are water insoluble, peptide-liposomes composed of phosphatidylcholine, phosphatidylglycerol and cholesterol in the molar ratio of 7:2:1 in saline were used and kill kinetics of the peptides were assessed in the presence or absence of serum.

Compound: Lau-kfkwpw-NH2 (Lauroyl-[dK][dF][dK][dW][dP][dW]-NH2; SMILES CCCCCCCCCCCC(=O)N[C@H](CCCCN)C(=O)N[C@H](Cc1ccccc1)C(=O)N[C@H](CCCCN)C(=O)N[C@H](Cc1c[nH]c2ccccc12)C(=O)N1CCC[C@@H]1C(=O)N[C@H](Cc1c[nH]c2ccccc12)C(N)=O) [SEQ ID NO: 83]
- killing of S. aureus in 80% serum (in words) (S. aureus): perform very well

Compound: KFKWPW-NH2 [SEQ ID NO:1]
- growth of organism (Trychophyton rubrum): only a slight growth
- growth of organism [1]: only a slight growth
- Result (systemic toxicity) [2]: did not elicit systemic toxicity

Compound: CCCCCCCC(=O)N[C@@H](CCCCN)C(=O)N[C@@H](Cc1ccccc1)C(=O)N[C@@H](CCCCN)C(=O)N[C@@H](Cc1c[nH]c2ccccc12)C(=O)N1CCC[C@H]1C(=O)N[C@@H](Cc1c[nH]c2ccccc12)C(N)=O [SEQ ID NO: 55, OCT-KFKWPW-NH2] (Octanoyl-KFKWPW-NH2)
- MIC-SEQ ID NO: 55 + azole, peptide part ([3]; C. albicans #185): 16
- MIC-SEQ ID NO: 55 + azole, peptide part ([3]; C. albicans #186): 2
- MIC-SEQ ID NO: 55 + azole, peptide part ([3]; C. albicans #187): 4
- MIC-SEQ ID NO: 55 + azole, peptide part ([3]; C. albicans #192): 4
- MIC-SEQ ID NO: 55 + azole, peptide part ([3]; C. albicans #196): 4
- MIC-SEQ ID NO: 55 + azole, peptide part ([3]; C. albicans #199): 4
- MIC, lipid length SAR (Pseudomonas aeruginosa): 32
- MIC-NO: 55 combined (P. aeruginosa; P. aeruginosa 100609): 2 µg/mL
- MIC-NO: 55 combined (P. aeruginosa; P. aeruginosa H187): 8 µg/mL
- MIC-NO: 55 combined (P. aeruginosa; P. aeruginosa H401): 2 µg/mL
- MIC-NO: 55 combined (P. aeruginosa; P. aeruginosa M917): 16 µg/mL
- MIC (S. epidermidis ATCC12228): 8
- MIC, lipid length SAR [4]: 32
- Activity (MIC) against P. acnes (P. acnes; ATCC 6921): 4
- Activity (MIC) against P. acnes (P. acnes; ATCC 6922): 8
- Activity (MIC) against P. acnes (P. acnes; ATCC 6923): 8
- Activity (MIC) against P. acnes (P. acnes; ATCC 11828): 8
- Activity (MIC) against P. acnes (P. acnes; ATCC 12930): 8
- Activity (MIC) against P. acnes (P. acnes; ATCC 25746): 1
- Activity (MIC) against P. acnes (P. acnes; ATCC 29399): 16
- Activity (MIC) against P. acnes (P. acnes; ATCC 33179): 16
- Activity (MIC) against P. acnes (P. acnes; ATCC 49929): 0.125
- Activity (MIC) against P. acnes (P. acnes; ATCC 51277): 4
- MRSA count in kill curve (MRSA; buffer, 1 mg/ml, 30 min): 100
- MRSA count in kill curve (MRSA; buffer, 1 mg/ml, 1 hour): 100
- MRSA count in kill curve (MRSA; buffer, 1 mg/ml, 2 hours): 10
- MRSA count in kill curve (MRSA; buffer, 1 mg/ml, 3 hours): 10
- MRSA count in kill curve (MRSA; buffer, 1 mg/ml, 4 hours): 10
- MRSA count in kill curve (MRSA; buffer, 1 mg/ml, 5 hours): 10
- MRSA count in kill curve (MRSA; serum, 0.5 mg/ml, 30 min): 10
- MRSA count in kill curve (MRSA; serum, 0.5 mg/ml, 1 hour): 10
- MRSA count in kill curve (MRSA; serum, 0.5 mg/ml, 2 hours): 10
- MRSA count in kill curve (MRSA; serum, 0.5 mg/ml, 3 hours): 10
- MRSA count in kill curve (MRSA; serum, 0.5 mg/ml, 4 hours): 10
- MRSA count in kill curve (MRSA; serum, 0.5 mg/ml, 5 hours): 10
- MRSA count in kill curve (MRSA; serum, 1 mg/ml, 30 min): 3900
- MRSA count in kill curve (MRSA; serum, 1 mg/ml, 1 hour): 1100
- MRSA count in kill curve (MRSA; serum, 1 mg/ml, 2 hours): 100
- MRSA count in kill curve (MRSA; serum, 1 mg/ml, 3 hours): 30
- MRSA count in kill curve (MRSA; serum, 1 mg/ml, 4 hours): 20
- MRSA count in kill curve (MRSA; serum, 1 mg/ml, 5 hours): 60
- MRSA count in kill curve (MRSA; serum, 2 mg/ml, 30 min): 1000000
- MRSA count in kill curve (MRSA; serum, 2 mg/ml, 1 hour): 1000000
- MRSA count in kill curve (MRSA; serum, 2 mg/ml, 2 hours): 1000000
- MRSA count in kill curve (MRSA; serum, 2 mg/ml, 3 hours): 1000000
- MRSA count in kill curve (MRSA; serum, 2 mg/ml, 4 hours): 1000000
- MRSA count in kill curve (MRSA; serum, 2 mg/ml, 5 hours): 1000000
- kill kinetics in lipid environment (in words) (S. aureus MRSA): shown to be effective
